Experimental data published in patent publication US20220409578A1, “FUNCTIONALIZED 1,3-BENZENE DIOLS AND THEIR METHOD OF USE FOR THE TREATMENT OF RADIATION DERMATITIS AND OTHER SKIN DISORDERS” (KANNALIFE SCIENCES, INC., priority 2019, published 2022).

Key:
[1] = system: human 3D cornea-like EPIOCULAR; assay: Eye irritation, EPIOCULAR reconstructed cornea-like model, OECD 492 (MTT); format: cell-based; conditions: KLS-13022 up to 3% w/v in 60:40 ethanol:water; OECD 492
Protocol: Ocular irritancy: The purpose of this study was to evaluate any potential ocular irritation activity of KLS-13022 formulations compared to vehicle-only treated tissues in vitro on human 3D cornea-like EPIOCULAR by topical application according to OECD 492 protocol. Test formulations of KLS-13022 up to 3% w/v in 60:40 ethanol:water vehicle were prepared fresh before use. EPIOCULAR tissues were acclimated before treatments for 24 hours and later treated topically for 30 minutes with KLS-13022 (0.01, 0.1, 0.3 1, 3% w/v). Methyl acetate was used as positive eye irritant control. Tissue viability levels were measured by MTT reduction assay method after material treatments. The levels of tissue viability after each material treatment was compared to vehicle control group to determine any potential ocular irritation activity.
Average levels of tissue viability were calculated for each treatment group. According to OECD 492 protocol, predicted positive eye irritation activities were determined when obtaining <60% tissue viability. […] Primary cornea-like inserts were used from human origin and purchased from MatTek (Ashland, Mass.). […] Tissues were cultured with standard conditions (37° C., 95% v/v air, 5% v/v CO2) and acclimated for 18+3 hours before dosing procedures.

[2] = Antioxidant capacity (ABTS/metmyoglobin assay); format: biochemical; conditions: OD 750 nm, 15 minutes after hydrogen peroxide
Protocol: Antioxidant capacity: The purpose of this study was to evaluate the overall antioxidant capacity of KLS-13022 for the ability to inhibit the oxidation of ABTS. (2,2′-Azino-di-[3-ethylbenzthiazoline sulphonate]) to ABTS.^+ by metmyoglobin. Ascorbic acid (Vitamin C) was used as positive antioxidant control in the assay. The testing involved the suppression of optical density (OD) at 750 nm to a degree, which is proportional to an effective oxidation inhibition. Neat solutions were prepared for materials formulated in HPLC-grade water (ascorbic acid) or 200-proof ethanol (KLS-13022). Serial dilutions were prepared for each material and mixed with metmyoglobin enzyme in assay buffer solution. All samples were compared to vehicle-only treated samples used as negative oxidation inhibition. Optical density changes at 750 nm were evaluated 15 minutes after addition of hydrogen peroxide to each sample. Average absorbance was calculated and plotted for each sample concentration. Effective antioxidant inhibition activity based on the change of absorbance of blank (vehicle-only) sample (no material added). […] The Antioxidant assay kit was obtained from Cayman Chemical Co. (Ann Arbor, Mich.). The assay consisted in the evaluation of the overall antioxidant capacity of test materials for the ability to inhibit the oxidation of ABTS. to ABTS.^+ by metmyoglobin. […]

[3] = system: IL-8; assay: IL-8 release, nickel-induced allergy in human dermal microvascular endothelial cells (ELISA); format: cell-based; conditions: Homo sapiens, Endothelial cell; co-treatment with NiSO4, HDMECs; read-out: IC50 of IL-8 inhibition
Protocol: Dermal Microvascular endothelial cells of human origin were cultured in vitro using standard conditions (37° C., 95% v/v air, 5% v/v CO2). Human cells were selected as relevant to cell types within skin tissues for this development program. Cell culture methods are commonly used in non-clinical studies conducted on pharmaceutical products. […] Cells were cultured until the third and fourth passage and then acclimated for 24 hours before Nickel induction and dosing procedures. Cell treatment groups were identified using appropriate 96-well plates. The test and control articles were administered to medium containing 1 mM NiSO4 in triplicates. The negative control group received vehicle-only (0.1% v/v final) dose. A fixed 0.1 μL/well from 1000× stock dose volume was administered to 100 μL of media to each cell culture well on Day 2 and incubated for 6 hours at 37 degrees. These cell cultures were also utilized to determine the concentrations of test agent that were non-toxic after 24 hours of incubation.
Assay for Interleukin-8: Test material was applied in vitro for the ability to inhibit pro-inflammatory (IL-8) cytokine secretion by cultured HDMECs co-treated with Nickel (NiSO4). Clobetasol propionate was tested as positive control material for anti-inflammatory activity. The pro-inflammatory cytokine (IL-8) was quantified by enzyme-linked immunosorbent assay (ELISA) after inflammatory induction and incubation with test and control materials. Interleukin-8 levels in cell culture medium are markers of inflammation signaling by endothelial cells present in skin microvascular tissue in response to irritation. Interleukin-8 (IL-8) levels were assessed using BD Biosciences OptEIA™ Human IL-8 ELISA Set kit (Cat. No. 555244) and Reagent Set B (Cat. No. 550534) according to the manufacture's specifications. Absorbance was measured at 450 nm using plate reader and interleukin-8 levels were calculated from a standard curve.

**Q.** Which ocular irritancy potential [1] does the source give for `COC(C)=O` [methyl acetate, Methyl acetate, reference compound] here?
**A.** The ocular irritancy potential was “strong eye irritant”.

**Q.** Which EC50 [2] does the source give for `O=C1O[C@H]([C@@H](O)CO)C(O)=C1O` [ascorbic acid, reference compound] here?
**A.** The EC50 was 39.7 µM.

**Q.** Which IC50 [3] does the source give for `CCC(=O)O[C@]1(C(=O)CCl)[C@@H](C)C[C@H]2[C@@H]3CCC4=CC(=O)C=C[C@]4(C)[C@@]3(F)[C@@H](O)C[C@@]21C` [Clobetasol propionate, reference compound] here?
**A.** The IC50 was ~0.5 µM.
